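Each compound was tested at five concentrations against cells in 96-well plates for 48 hours. GI50 marks 50% less growth.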 Active and inactive are the calls of the source. No stated cut-off is given here; in the data, active = GI50 up to about 1.1 µM and inactive = higher.
Columns and labels:
Assay in all cases: NCI-60 cell line screen, 48 h
[1] = tested on: A498
[2] = tested on: COLO 205
[3] = tested on: EKVX
[4] = tested on: HCC 2998
[5] = tested on: HCT-116
[6] = tested on: HCT-15
[7] = tested on: HOP-92
[8] = tested on: K562
[9] = tested on: LOX IMVI
[10] = tested on: MOLT-4
[11] = tested on: Malme-3M
[12] = tested on: NCI-H226
[13] = tested on: RPMI-8226
[14] = tested on: SF-539
[15] = tested on: SK-MEL-5
[16] = tested on: SNB-75
[17] = tested on: TK-10
[18] = tested on: UACC-257
[19] = tested on: UACC-62
[20] = tested on: UO-31

NS(=O)(=O)c1ccc(NNc2c3ccccc3nc3c(C(=O)Nc4ccc(S(N)(=O)=O)cc4)cccc23)cc1
GI50 [1]: > 100 µM (inactive) | GI50 [2]: 39.9 µM (inactive) | GI50 [3]: 42.8 µM (inactive) | GI50 [4]: 17.4 µM (inactive) | GI50 [5]: 22.1 µM (inactive) | GI50 [6]: > 100 µM | GI50 [7]: 5.07 µM (inactive) | GI50 [8]: 21.2 µM (inactive) | GI50 [9]: 11.5 µM (inactive) | GI50 [10]: 7.85 µM (inactive) | GI50 [11]: 23.8 µM (inactive) | GI50 [12]: 37.6 µM (inactive) | GI50 [13]: 24.9 µM (inactive) | GI50 [14]: 25.7 µM (inactive) | GI50 [15]: 34.9 µM (inactive) | GI50 [16]: 14.5 µM (inactive) | GI50 [17]: > 100 µM (inactive) | GI50 [18]: 98.4 µM (inactive) | GI50 [19]: 22.2 µM (inactive) | GI50 [20]: 63 µM (inactive)

COC(=O)CCC(=O)CC(=O)C1=NS(=O)(=O)c2nc(S(N)(=O)=O)c(Cl)cc2N1
GI50 [1]: > 100 µM (inactive) | GI50 [2]: > 100 µM (inactive) | GI50 [3]: > 100 µM (inactive) | GI50 [4]: > 100 µM (inactive) | GI50 [5]: > 100 µM (inactive) | GI50 [6]: > 100 µM | GI50 [7]: > 100 µM (inactive) | GI50 [8]: > 100 µM (inactive) | GI50 [9]: 70.5 µM (inactive) | GI50 [10]: > 100 µM (inactive) | GI50 [11]: > 100 µM (inactive) | GI50 [12]: > 100 µM (inactive) | GI50 [13]: > 100 µM (inactive) | GI50 [14]: > 100 µM (inactive) | GI50 [15]: > 100 µM (inactive) | GI50 [16]: > 100 µM (inactive) | GI50 [17]: > 100 µM (inactive) | GI50 [18]: > 100 µM (inactive) | GI50 [19]: > 100 µM (inactive) | GI50 [20]: > 100 µM (inactive)

CCOC(=O)C(C(=O)OCC)c1ccc([N+](=O)[O-])o1
GI50 [1]: > 10 µM (inactive) | GI50 [2]: 3.27 µM (inactive) | GI50 [3]: 18.7 µM (inactive) | GI50 [4]: 17.3 µM (inactive) | GI50 [5]: 15.6 µM (inactive) | GI50 [6]: 17.3 µM | GI50 [7]: 6.62 µM (inactive) | GI50 [8]: 3.43 µM (inactive) | GI50 [9]: 3.17 µM (inactive) | GI50 [10]: 3.08 µM (inactive) | GI50 [11]: 6.73 µM (inactive) | GI50 [12]: 21.9 µM (inactive) | GI50 [13]: 6.87 µM (inactive) | GI50 [14]: 19.9 µM (inactive) | GI50 [15]: 17.3 µM (inactive) | GI50 [16]: 20 µM (inactive) | GI50 [17]: 16.9 µM (inactive) | GI50 [18]: 14.7 µM (inactive) | GI50 [19]: 17.9 µM (inactive) | GI50 [20]: 15.6 µM (inactive)

CCOC(=O)c1cc(-c2ccc(OC)c(OC)c2)cn1C
GI50 [1]: > 10 µM (inactive) | GI50 [2]: > 10 µM (inactive) | GI50 [3]: > 10 µM (inactive) | GI50 [4]: > 10 µM (inactive) | GI50 [5]: > 10 µM (inactive) | GI50 [6]: > 10 µM | GI50 [7]: > 10 µM (inactive) | GI50 [8]: > 10 µM (inactive) | GI50 [9]: > 10 µM (inactive) | GI50 [10]: > 10 µM (inactive) | GI50 [11]: > 10 µM (inactive) | GI50 [12]: > 10 µM (inactive) | GI50 [13]: > 10 µM (inactive) | GI50 [14]: > 10 µM (inactive) | GI50 [15]: > 10 µM (inactive) | GI50 [16]: 4.43 µM (inactive) | GI50 [17]: > 10 µM (inactive) | GI50 [18]: > 10 µM (inactive) | GI50 [19]: > 10 µM (inactive) | GI50 [20]: > 10 µM (inactive)

CC(=O)Nc1cc2c3c(c1)CCCN3CCC2
GI50 [1]: > 100 µM (inactive) | GI50 [2]: > 100 µM (inactive) | GI50 [3]: 64.9 µM (inactive) | GI50 [4]: > 100 µM (inactive) | GI50 [5]: > 100 µM (inactive) | GI50 [6]: > 100 µM | GI50 [7]: > 100 µM (inactive) | GI50 [8]: > 100 µM (inactive) | GI50 [9]: > 100 µM (inactive) | GI50 [10]: > 100 µM (inactive) | GI50 [11]: > 100 µM (inactive) | GI50 [12]: > 100 µM (inactive) | GI50 [13]: > 100 µM (inactive) | GI50 [14]: > 100 µM (inactive) | GI50 [15]: > 100 µM (inactive) | GI50 [16]: 65.5 µM (inactive) | GI50 [17]: > 100 µM (inactive) | GI50 [18]: > 100 µM (inactive) | GI50 [19]: > 100 µM (inactive) | GI50 [20]: > 100 µM (inactive)

C/C(=N\NC(=S)Nc1ccc(C(=O)O)cc1)c1ccccn1
GI50 [1]: 25 µM (inactive) | GI50 [2]: 18.4 µM (inactive) | GI50 [3]: 27.9 µM (inactive) | GI50 [4]: 15 µM (inactive) | GI50 [5]: 23.5 µM (inactive) | GI50 [6]: 26.5 µM | GI50 [7]: 43.6 µM (inactive) | GI50 [8]: 40.1 µM (inactive) | GI50 [9]: 16.7 µM (inactive) | GI50 [10]: 33.3 µM (inactive) | GI50 [11]: 15.5 µM (inactive) | GI50 [12]: 18.2 µM (inactive) | GI50 [13]: 29.8 µM (inactive) | GI50 [14]: 18.3 µM (inactive) | GI50 [15]: 16.9 µM (inactive) | GI50 [16]: 20.5 µM (inactive) | GI50 [17]: 30.6 µM (inactive) | GI50 [18]: 25.4 µM (inactive) | GI50 [19]: 5.04 µM (inactive) | GI50 [20]: 11.6 µM (inactive)

CN1CCC2(CC1)SC[C@H]1C(=O)N(c3ccc(Cl)cc3)C(=O)N12
GI50 [1]: 24.2 µM (inactive) | GI50 [2]: > 100 µM (inactive) | GI50 [3]: > 100 µM (inactive) | GI50 [4]: > 100 µM (inactive) | GI50 [5]: > 100 µM (inactive) | GI50 [6]: 50.1 µM | GI50 [7]: > 100 µM (inactive) | GI50 [8]: 45.2 µM (inactive) | GI50 [9]: > 100 µM (inactive) | GI50 [10]: > 100 µM (inactive) | GI50 [11]: > 100 µM (inactive) | GI50 [12]: > 100 µM (inactive) | GI50 [13]: > 100 µM (inactive) | GI50 [14]: > 100 µM (inactive) | GI50 [15]: > 100 µM (inactive) | GI50 [16]: > 100 µM (inactive) | GI50 [17]: > 100 µM (inactive) | GI50 [18]: > 100 µM (inactive) | GI50 [19]: > 100 µM (inactive) | GI50 [20]: > 100 µM (inactive)

CC(C)(C)[Si](C)(C)O[C@@H](C(=O)OC1C=CCCC1)[C@@H](NC(=O)c1ccccc1)c1ccccc1 (stereo not given in full)
GI50 [1]: 35.6 µM (inactive) | GI50 [2]: 25.3 µM (inactive) | GI50 [3]: 31.7 µM (inactive) | GI50 [4]: 14.1 µM (inactive) | GI50 [5]: 12.6 µM (inactive) | GI50 [6]: 20 µM | GI50 [7]: 8.99 µM (inactive) | GI50 [8]: 14 µM (inactive) | GI50 [9]: 16.7 µM (inactive) | GI50 [10]: 14.7 µM (inactive) | GI50 [11]: 40.3 µM (inactive) | GI50 [12]: 37.8 µM (inactive) | GI50 [13]: 4.79 µM (inactive) | GI50 [14]: 61.1 µM (inactive) | GI50 [15]: 16.8 µM (inactive) | GI50 [16]: 27.7 µM (inactive) | GI50 [17]: 16.5 µM (inactive) | GI50 [18]: 19.7 µM (inactive) | GI50 [19]: 26.8 µM (inactive) | GI50 [20]: 27.7 µM (inactive)
